Data reported in patent US6335357B1, “Pyrazole derivatives, process for preparing the same, intermediates, and pest control agent containing the same as active ingredient” (Mitsubishi Chemical Corporation, priority 1997, dated 2002).

What was measured:
Type in all cases: in vivo
Myzus persicae [1] = test: Low concentration test, Myzus persicae (Test Example 6)
Callosobruchus chinensis = test: Insecticidal effect on imagoes of Callosobruchus chinensis (Test Example 4); conditions: 500 ppm, sprayed emulsion, after 4 days at 25° C.
Protocol: Insecticidal Effect on Imagoes of Callosobruchus chinensis:
Two adzuki beans were put in a glass cylinder (inner diameter: 3 cm; length: 15 cm), and 10 imagoes of Callosobruchus chinensis were set free therein. An agricultural and horticultural insecticide was prepared in accordance with Formulation Example 3 and diluted with water, and 0.3 ml of the resulting emulsion was sprayed in the glass cylinder by means of a spray tower (manufactured by Mizuho Rica) (duplicates at a concentration). The cylinder was kept in a thermostat at 25° C., and the mortality and agony of the larvea were examined after 4 days from the treatment to obtain a death rate (%) taking an agonizing insect as a ½ dead insect.

Spodoptera litura [2] = test: Low concentration test, Spodoptera litura (Test Example 6)
Myzus persicae [3] = test: Insecticidal effect on larvae of Myzus persicae (Test Example 5); conditions: 500 ppm; Japanese radish leaves dipped in emulsion; 4th day after treatment at 25° C.
Protocol: Insecticidal Effect on Larvae of Myzus persicae:
Water was put in a screw bottle (volume: 10 ml), and a leafstalk of Japanese radish was placed therein and inoculated with 5 to 6 imagoes of Myzus persicae per leave. After the inoculation, the bottle was put in a glass cylinder (diameter: 3.5 cm; height: 15 cm) with a mesh cover, and the insects were let to proliferate in a thermostat kept at 25° C. for 3 days. […] The cylinder was maintained in the thermostat at 25° C., and the number of the insects on the leaves was counted on the 4th day after the treatment to obtain a death rate (%).

Plutella xylostella [4] = test: Low concentration test, Plutella xylostella (Test Example 6)
From the text: Effects on the larvae of Plutella xylostella of compound Nos. 2 and 57 of the invention and, for comparison, the compound I described in an unexamined published Japanese patent application 63-316771 and the compounds II and III described in an unexamined published Japanese patent application 5-148240 were examined at varied concentrations. The results obtained are shown in Table 7 (the compound numbers in the Table correspond to the numbers in Table 1).

Spodoptera litura [5] = test: Insecticidal effect on larvae of Spodoptera litura (Test Example 3); conditions: 500 ppm; 3-instar larvae, cabbage leaf disc soaked in suspension; after 5 days at 25° C.
Protocol: Insecticidal Effect on Larvae of Spodoptera litura:
(§1) A disc (6 cm in diameter) cut out of a cabbage leaf was soaked in an aqueous suspension of an agricultural and horticultural insecticide prepared in accordance with Formulation Example 1 for 1 minute, air-dried, and placed in a plastic cup (inner diameter: 7 cm). Five 3-instar larvae of Spodoptera litura were set free in the cup (duplicates at a concentation). The cup was kept in a thermostat at 25° C., and the death and agony of the larvae were examined after 5 days from the treatment to obtain a death rate (%) taking an agonizing insect as a ½ dead insect. The results obtained are show in Table 4 (the compound numbers in the Table below correspond to the numbers in Table 1).

Nilaparvata lugens = test: Insecticidal effect on larvae of Nilaparvata lugens (Test Example 1); conditions: 500 ppm; 4th instar larvae on rice seedling, sprayed emulsion; after 5 days at 25° C.
Protocol: Insecticidal Effect on Larvae of Nilaparvata lugens:
A rice seedling was planted in a glass cylinder (inner diameter: 3 cm; length: 17 cm), and five 4th instar larvae of Nilaparvata lugens were set free therein. An agricultural and horticultural insecticide was prepared in accordance with Formulation Example 3 and diluted with water, and 0.5 ml of the resulting emulsion was sprayed in the cylinder by means of a spray tower (manufactured by Mizuho Rika) (duplicates at a concentration). The cylinder was kept in a thermostat at 25° C., and the mortality and agony of the larvae were examined after 5 days from the treatment to obtain a death rate (%) taking an agonizing insect as a ½ dead insect.

Plutella xylostella [6] = test: Insecticidal effect on larvae of Plutella xylostella (Test Example 2); conditions: 500 ppm; 3-instar larvae, cabbage leaf disc soaked in suspension; after 4 days at 25° C.
Protocol: Insecticideal Effect on Larvae of Plutella xylostella:
as §1, with “of the” for “of an”, “of Plutella xylostella” for “of Spodoptera litura”, “a concentration).” for “a concentation).”, “after 4” for “after 5”, “are shown” for “are show”, “Table 3” for “Table 4”

CD-1 male mice = test: Single oral dose administration test in mice (acute toxicity, Test Example 7); conditions: 300 mg/kg single oral dose in 0.5% CMC-Na, after 7 days
Protocol: Single Oral Dose Administration Test in Mice:
Acute toxicity (p.o.) compound No. 1 in mice was examined as follows. For comparison, compound IV disclosed in an unexamined published Japanese patent application 63-316771 was tested similarly.
Each test compound (300 mg) was suspended in 10 ml of a 0.5% CMC-Na aqueous solution. Five 6-week-old CD-1 male mice (available from Charles River) per group were forced to take an oral dose of 10 ml/kg of the suspension. The number of dead mice was counted after 7 days from the administration to obtain a death rate.

SMILES: N#Cc1nn(-c2c(Cl)cc(C(F)(F)F)cc2Cl)c(NCc2ccncc2)c1SC(F)(F)F [Compound 1, 1-(2,6-Dichloro-4-trifluoromethylphenyl)-3-cyano-4-trifluoromethylsulfenyl-5-(4-pyridylmethylamino)pyrazole]
- Death Rate (%) Myzus persicae (Myzus persicae [1]; 12.5 ppm): 98%
- Death Rate (%) Myzus persicae (Myzus persicae [1]; 50 ppm): 100%
- Death Rate (%) Myzus persicae (Myzus persicae [1]; 200 ppm): 100%
- Death Rate (%) (Callosobruchus chinensis): 100%
- Death Rate (%) Spodoptera litura (Spodoptera litura [2]; 3.1 ppm): 95%
- Death Rate (%) Spodoptera litura (Spodoptera litura [2]; 12.5 ppm): 100%
- Death Rate (%) Spodoptera litura (Spodoptera litura [2]; 50 ppm): 100%
- Death Rate (%) Spodoptera litura (Spodoptera litura [2]; 200 ppm): 100%
- Death Rate (%) (Myzus persicae [3]): 100%
- Death Rate (%) Plutella xylostella (Plutella xylostella [4]; 0.05 ppm): 95%
- Death Rate (%) Plutella xylostella (Plutella xylostella [4]; 0.2 ppm): 100%
- Death Rate (%) Plutella xylostella (Plutella xylostella [4]; 0.8 ppm): 100%
- Death Rate (%) Plutella xylostella (Plutella xylostella [4]; 3.1 ppm): 100%
- Death Rate (%) Plutella xylostella (Plutella xylostella [4]; 12.5 ppm): 100%
- Death Rate (%) Plutella xylostella (Plutella xylostella [4]; 50 ppm): 100%
- Death Rate (%) Plutella xylostella (Plutella xylostella [4]; 200 ppm): 100%
- Death Rate (%) (Spodoptera litura [5]): 100%
- Death Rate (%) (Nilaparvata lugens): 100%
- Death Rate (%) (Plutella xylostella [6]): 100%

SMILES: COc1cc(CNc2c(SC(F)(F)F)c(C#N)nn2-c2c(Cl)cc(C(F)(F)F)cc2Cl)ccc1O [Compound 2, 1-(2,6-Dichloro-4-trifluoromethylphenyl)-3-cyano-4-trifluoromethylsulfenyl-5-[(3-methoxy-4-hydroxyphenyl)methylamino]pyrazole]
- Death Rate (%) (CD-1 male mice): 0%
- Death Rate (%) (Callosobruchus chinensis): 100%
- Death Rate (%) (Myzus persicae [3]): 100%
- Death Rate (%) (Spodoptera litura [5]): 100%
- Death Rate (%) (Nilaparvata lugens): 100%
- Death Rate (%) (Plutella xylostella [6]): 100%

SMILES: CC(C)(C)c1ccc(CNc2c(SC(F)(F)F)c(C#N)nn2-c2c(Cl)cc(C(F)(F)F)cc2Cl)cc1 [Compound 5]
- Death Rate (%) (Callosobruchus chinensis): 100%
- Death Rate (%) (Nilaparvata lugens): 100%

SMILES: COc1ccc(CNc2c(SC(F)(F)F)c(C#N)nn2-c2c(Cl)cc(C(F)(F)F)cc2Cl)cc1 [Compound 7]
- Death Rate (%) (Callosobruchus chinensis): 100%
- Death Rate (%) (Spodoptera litura [5]): 100%
- Death Rate (%) (Nilaparvata lugens): 100%
- Death Rate (%) (Plutella xylostella [6]): 100%

SMILES: CC(C)Oc1ccc(CNc2c(SC(F)(F)F)c(C#N)nn2-c2c(Cl)cc(C(F)(F)F)cc2Cl)cc1 [Compound 8]
- Death Rate (%) (Callosobruchus chinensis): 100%
- Death Rate (%) (Nilaparvata lugens): 100%
- Death Rate (%) (Plutella xylostella [6]): 100%

SMILES: N#Cc1nn(-c2c(Cl)cc(C(F)(F)F)cc2Cl)c(NCc2ccccc2Cl)c1SC(F)(F)F [Compound 18]
- Death Rate (%) (Callosobruchus chinensis): 100%
- Death Rate (%) (Spodoptera litura [5]): 100%
- Death Rate (%) (Nilaparvata lugens): 100%
- Death Rate (%) (Plutella xylostella [6]): 100%
